{
  "source": "patent US20060148057A1",
  "about": "“Thioredoxin mutants and uses thereof” (priority 2002, published 2006)",
  "key": {"[1]": {"system": "neonatal rat cardiomyocytes", "details": "100 μM H2O2, 15 min post-treatment", "procedure": "Primary cultures of neonatal rat cardiac ventricular myocytes were prepared by the method of Simpson and Savion (Simpson P et al. Differentiation of rat myocytes in single cell cultures with and without proliferating nonmyocardial cells. Cross-striations, ultrastructure, and chronotropic response to isoproterenol. Circ Res. 50:101-16 (1982)) with minor modifications. Briefly, the ventricles were excised from 1-2 day old Wistar rats under ethyl ether anesthesia and minced with scissors in Ca^2+ free Krebs-Henseleit buffer (KHB) solution. The cells were dispersed by adding KHB containing 0.05% trypsin and 0.05% collagenase type II. They were stirred with the use of a small magnetic stirrer bar at 37° C. for 10 min, and the supernatants were saved in cold DMEM containing 10% fetal calf serum (complete DMEM), and digestion was repeated four times. The resultant cell suspension was centrifuged, and the pellet was resuspended in the medium. The cells were plated onto culture flasks for 1.5 hours to remove non-cardiac myocytes. The unattached cells were removed and seeded at 4×10^5 per well in 2.2 cm multi-well gelatin-coated culture plates in DMEM containing 10% fetal calf serum, 100 U/ml penicillin and 100 μg/ml streptomycin. […]\nCardiomyocyte contraction was determined by microscopy. […]"}, "adult rat cardiomyocytes": {"system": "adult rat cardiomyocytes", "assay": "Twitch amplitude of field-stimulated adult rat cardiac myocytes", "details": "100 μM H2O2, field stimulated at 1 Hz, n=15", "source_text": "Phosphorylation of endogenous cTnT in cardiomyocytes was examined by in vivo labeling with ^32P-orthophosphate and cell lysates were immunoprecipitated with anti-cTnT followed by SDS-PAGE/autoradiography."}, "ASK1 [2]": {"system": "ASK1", "assay": "Association of Trx with ASK1 in vivo in BAEC (co-immunoprecipitation)", "assay_type": "binding, Bovine", "details": "endogenous proteins, IP anti-Trx / Western anti-ASK1; Nac pretreatment then TNF", "method": "Immunoprecipitation and immunoblotting EC after various treatments were washed twice with cold PBS and lysed in 1.5 ml of cold lysis buffer (50 mM Tris-HC, pH 7.6, 150 mM NaCl, 0.1% Triton X-100, 0.75% Brij 96, 10 μg/ml aprotinin, 10 μg/ml leupeptin, 2 mM PMSF, 1 mM EDTA) for 20 min on ice. Protein concentrations were determined with a Bio-Rad kit. For immunoprecipitation to analyze protein interaction in vivo, 400 μg of cell lysate supematant were incubated with 5 μg of the first protein-specific antiserum (e.g. anti-Trx from Medical & Biological Laboratory) for 2 h with 50 μl of GammaBind plus Sepharose. Immune complexes were collected after each immunoprecipitation by centrifugation at 14,000× g for 10 min followed by 4 washes with lysis buffer. The immune complexes were subjected to Western blot with the second protein (e.g., ASK1)-specific antibody (Santa Cruz Biotech, Santa Cruz, Calif.). The chemiluminescence was detected using an ECL kit according to the instructions of the manufacturer (Amersham Life Science, Arlington Heights, Ill.). […]\nTNF dissociates wild type Trx but not Trx-C32S or Trx-C35Sfroin ASK1 in vivo. […] TNF-induced ASK1 activation was measured by an in vitro kinase assay using GST-MKK4 (JNKK1) fusion protein as a substrate. […] Association of ASK1 with Trx was easily detected in untreated EC cells (FIG. 5B, Ctrl). […]"}, "ASK1 [3]": {"system": "ASK1", "assay": "TNF-induced ASK1 activation in BAEC, in vitro kinase assay with GST-MKK4", "assay_type": "cell-based, Bovine", "details": "Nac 1 mM pretreatment, TNF-α 10 ng/ml 15 min; n=3, p<0.01", "method": "J Immunol. 159:3508-18 (1997)) using GST-MKK4 and GST-c-Jun (1-80) fusion protein as a substrate, respectively. Briefly, total 400 μg cell lysates were immunoprecipitated with 5 μg of antibody against ASK1 or JNK1 (Santa Cruz). The immunoprecipitates were mixed with 10 μg GST-MKK4 or GST-c-Jun (1-80) suspended in the kinase buffer (20 mM Hepes, pH 7.6, 20 mM MgCl2, 25 mM β-glycerophosphate, 100 μM sodium orthovanadate, 2 mM DTT, 20 μM ATP) containing 1 μl (10 μCi) of [γ-32P] ATP. The kinase assay was performed at 25° C. for 30 min. The reaction was terminated by the addition of Laemmli sample buffer and the phosphorylated GST-MKK4 or GST-c-Jun (1-80) was visualized by autoradiography.\nTNF dissociates wild type Trx but not Trx-C32S or Trx-C35Sfroin ASK1 in vivo. Trx-C32S and Trx-C35S were examiner to determine whether they constitutively bind to ASK1 in vivo. Regulation of ASK1 by Trx was first examined to determine if such regulation is ROS-dependent in EC. BAEC were either untreated or treated with N-acetyl-cysteine (Nac, 1 mM) or vehicle for 60 min prior to TNF-α (10 ng/ml) stimulation for 15 min. TNF-induced ASK1 activation was measured by an in vitro kinase assay using GST-MKK4 (JNKK1) fusion protein as a substrate. TNF activated ASK1 in EC (FIG. 5A). […] Association of ASK1 with Trx was easily detected in untreated EC cells (FIG. 5B, Ctrl). […]"}, "caspase 3": {"system": "caspase 3", "assay": "ASK1-induced caspase 3 activity assay in BAEC (Ac-DEVD-AMC substrate)", "assay_type": "cell-based, Bovine", "details": "100 μM inhibitor in lysate assay", "method": "Caspase 3 activity assay: Caspase 3 activity was measured with a Caspase 3 fluorescence kit (Sigma) according to the Manufacturer's protocol. Briefly, BAEC were harvested in Caspase 3 lysis buffer (25 mM Hepes, pH 7.4, 5 mM CHAPS, 5 mM DTT) and incubated on ice for 15-20 min followed by a centrifugation at 14,000× g for 10-15 min at 4° C. For each reaction, 5 μl (200 μg) of cell lysate was incubated with 200 μl of 16 μM Caspase 3 peptide substrate acetyl-ASP-Glu-Val-Asp-7 amido-4-methylcoumarin (Ac-DEVD-AMC) in the assay buffer (25 mM Hepes, pH 7.4, 5 mM EDTA, 0.1% CHAPS, 5 mM DTT) in the presence or absence of 100 μM Caspase 3 inhibitor (Ac-DEVD-CHO). The reaction was incubated in the dark for 1-1.5 h and fluorescence was measured in a fluorescence plate reader. The measured fluorescence was used as an arbitrary unit.\nThen the effects. of Trx on ASK1-induced caspase 3 activation, a hallmark of the execution of apoptotic cell death (Green D R. Apoptotic pathways: paper wraps stone blunts scissors. Cell. 102:1-4 (2000); Hengartner MO. The biochemistry of apoptosis. Nature. 407:770-6 2000)) was examined. Caspase 3 activity was determined by an in vitro assay using peptide substrate acetyl-ASP-Glu-Val-Asp-7 amido-4-methylcounarin (Ac-DEVD-AMC). Overexpression of ASK1 in BAEC increased caspase 3 activity compared to the control cells (FIG. 6B)."}},
  "data": [
    {"compound": "OO", "note": "[Trx H2O2, Hydrogen peroxide]", "values": [
      {"measurement": "spontaneous beating of neonatal cardiomyocytes", "setting": "[1]", "value": "completely inhibited"},
      {"measurement": "time to complete inhibition of twitch", "setting": "adult rat cardiomyocytes", "value": "2.38 ± 018", "unit": "min"}
    ]},
    {"compound": "CC(=O)N[C@@H](CS)C(=O)O", "note": "[Nac, N-acetyl-cysteine, reference compound]", "values": [
      {"measurement": "TNF-induced dissociation of ASK1 from Trx", "setting": "ASK1 [2]", "value": "prevented"},
      {"measurement": "inhibition of TNF-stimulated ASK1 activity", "setting": "ASK1 [3]", "value": 70, "unit": "%"}
    ]},
    {"compound": "Ac-DEVD-CHO [reference compound]", "values": [
      {"measurement": "caspase 3 activity in presence of caspase 3 inhibitor", "setting": "caspase 3", "value": "specifically inhibited"}
    ]}
  ]
}
